Reference: US8066972B2, “Altering memory by affecting staufen function” (Helicon Therapeutics, Inc., priority 2002, dated 2011)

Tested on: C57B1/6 male mice
Experiment: Contextual fear conditioning (weak versus strong training), 4-day contextual memory scored as freezing, after intra-hippocampal infusion
Type: in vivo, mouse
Design: effect on memory induced by strong training: dose or concentration left out as unconfirmed
Conditions: tested 4 days after training; for freezing responses: ANI 62.5 μg/2 μl per hippocampus immediately after training
Experimental: Ten to twelve week old C57B1/6 male mice (Taconic Laboratory, N.Y.) were used. Mice were housed in groups of four in standard mouse cages and kept in a 12:12 light-dark cycle and constant temperature (22° C.) in a humidity and ventilation-controlled animal house. With the exception of surgery, training and testing times, the mice had ad lib access to food and water. Animals were acclimatized to animal house environment for a week before surgery. On a day of surgery, mice were anesthetized with 20 mg/kg Avertin and implanted with a 26-gauge guide double cannula aimed at the dorsal hippocampus using a stereotaxic apparatus (Korf Instruments, Calif.; coordinates: P=1 mm; 5 mm to a depth 1-1.2 mm; Franklin and Paxinos, The Mouse Brain In Stereotaxis Coordinates, Academic Press, San Diego, Calif. (1997)). After the end of surgery, animals were individually maintained in a cage with ad lib access to food and water. Seven days after recovery from surgery, animals were trained for contextual fear conditioning.
The basic fear conditioning procedures and equipment remained as described (Bourtchuladze, R. et al., Cell, 79:59-68 (1994); and Bourtchouladze et al., Learn Mem., 5(4-5):365-374 (1998)). On the training day, the mouse was placed in the conditioning chamber (Med Associates) for 2 minutes before the onset of unconditioned stimulus (US) of 0.5 mA, two seconds shock. For weak training, US was repeated two times with a one minute inter-trial interval between shocks. For strong training, 5 USs were given. Training was automated and performed by computerized software package (Med Associates).
Thirty seconds after the end of the last trial, the mouse was returned to its home cage. The conditioning chamber was cleaned with 75% ethanol and then with water. Contextual memory was tested four days after training by scoring freezing responses. Freezing was assessed with a sampling method. That is, 2 second observations were taken every 5 seconds (Bourtchuladze, R. et al., Cell, 79:59-68 (1994); Bourtchouladze et al., Learn Mem., 5(4-5):365-374 (1998); and Frankland, P. W. et al., Behav. Neurosci., 112:863-874 (1998)). A mouse was detminined to be freezing when it adopted a motionless posture, refraining from all but respiratory movements.
For each training and drug-injecting procedure, an experimentally nave group of animals was used. The observations were made by an experimenter unaware of the experimental treatment of the mice. In each experiment, both training and testing were videotaped. Experiments were analyzed with an analysis of variance (ANOVA) and t-tests.
Anisomycin (ANI) (Sigma) was dissolved in 0.9% saline, and the pH was adjusted with 1 N HCl to 7.4. Control animals received injections of saline. Mice were injected in the hippocampus (62.5 μg/2 μl per hippocampus) immediately after training. Infusions were made through the guide cannula using a 33-gauge injection needle. The needle was connected via a polyethylene tube to a microsyringe fixed in the pump 11 (Harvard Instruments). The entire infusion procedure took 2 minutes and animals were freely moving during this time in the home cage. Experiments were replicated 2 times and for each training procedure, an experimentally nave group of animals was used (n=47 total).
Mouse antisense oligodeoxynucleotides (ODNs) directed against CREB mRNA (5′-T-s-g-s-g-s-T-C-A-T-T-g-T-T-A-C-C-g-s-g-s-T-s-g-3′) (SEQ ID NO:1) was used to disrupt hippocampal CREB protein levels. Control groups received infusions of ODN of the same base composition but in randomized order (scrambled CREB: 5′-g-s-T-s-C-s-T-g-T-A-g-T-C-g-A-T-C-T-A-T-s-g-s-g-s-T3′) (SEQ ID NO:2). ODNs were administered into the hippocampus (2 nmol/2 μl per hippocampus) as described above for ANI-infusion. CREB ODNs were infused 20 hours before training. Experiments were replicated 3 times and for each training procedure, an experimentally nave group of animals was used (n=54 total). […]

SMILES | effect on memory induced by weak training (Rolipram 0.03 ng into hippocampus, weak training (2 trials)) | effect on memory induced by weak training (Rolipram 3 ng into hippocampus, weak training (2 trials)) | effect on memory induced by weak training (Rolipram 30 ng/1 μl per hippocampus immediately after training, 2 trials, vs vehicle) | effect on maximal memory levels produced by strong training (Rolipram 30 ng/1 μl per hippocampus immediately after training, 5 trials, vs vehicle) | freezing responses (strong training (5 USs)) | freezing responses (weak training (2 USs)) | effect on memory induced by weak training (ANI 62.5 mg/2 μl per hippocampus immediately after training, weak training, vs vehicle) | effect on memory induced by strong training (ANI per hippocampus immediately after training, strong training, vs vehicle)
COc1ccc(C2CNC(=O)C2)cc1OC1CCCC1 (centres unmarked) [Rolipram] | had no memory enhancing effect | produced memory enhancing effect | significantly enhanced the amount of memory | had no effect | – | – | – | –
COc1ccc(C[C@H]2NC[C@H](O)[C@H]2OC(C)=O)cc1 [ANI, Anisomycin] | – | – | – | – | 28.42±4.9% | 17.1±4.3% | significantly impaired memory | significantly impaired memory
